Measured values reported in US20260226049A1, “NITROGEN-CONTAINING HETEROCYCLIC COMPOUND, PREPARATION METHOD THEREFOR, AND USE THEREOF” (BIVISION PHARMACEUTICALS, INC, priority 2023, published 2026).
Read-outs that look alike come from different tables or passages of the source.

How the values were obtained:
HT1080 8 #cells = experiment: Cell competitive binding assay against ^177Lu-radiolabeled FAPi-46
Procedure: (1) HT1080 8 #cells in the logarithmic growth phase were prepared into a cell suspension, and the cell density was adjusted to 1×10^4/mL. 1 mL of the suspension was seeded into a 24-well cell culture plate. The plate was incubated overnight in a 37° C. incubator.
(2) The cell culture medium was aspirated, and the cells were washed once with PBS, followed by the addition of 975 μL of additive-free medium.
(3) To each well, 25 µL of ^177Lu-radiolabeled FAPi-46 (Nanchang Tanzhen Biotechnology Co., Ltd., CAS: 2374782-04-2) at a fixed concentration (final concentration in culture medium: 1.35 μCi/mL) and varying concentrations (final concentrations in culture medium: 1000 ng/mL, 100 ng/ml, 10 ng/ml, 1 ng/mL, 0.1 ng/ml, 0.01 ng/mL, 0.001 ng/mL, 0 ng/ml) of unlabeled test compounds JHH8, JHDB8, and JHH9 were added.
(4) The mixture was incubated on ice for 2 hours.
(5) The cells were washed three times with ice-cold PBS.
(6) The cells were lysed with 0.5 mL of 1 M sodium hydroxide, washed twice with 0.5 mL of PBS, and the sodium hydroxide solution (0.5 mL) and PBS solutions (0.5 mL×2) were collected for uptake counting.
The control compound was OncoFAP-DOTAGA (structural formula: […]
The cell competitive binding of compounds JHH5, JHH4, JHH10, JHH8, H4b, H5b, and H8b was tested in the same batch using the above method, and the experimental results are shown in Table 3 and FIG. 3.

FAP protein = target: T1, FAP protein (Homo sapiens, UniProt Q12884); experiment: Biacore test of ligand binding to FAP protein; settings: FAP protein on SA chip, 15° C., 1:1 binding model
T1 construct: purchased Sinobiological
T1 sequence (Q12884 1-760): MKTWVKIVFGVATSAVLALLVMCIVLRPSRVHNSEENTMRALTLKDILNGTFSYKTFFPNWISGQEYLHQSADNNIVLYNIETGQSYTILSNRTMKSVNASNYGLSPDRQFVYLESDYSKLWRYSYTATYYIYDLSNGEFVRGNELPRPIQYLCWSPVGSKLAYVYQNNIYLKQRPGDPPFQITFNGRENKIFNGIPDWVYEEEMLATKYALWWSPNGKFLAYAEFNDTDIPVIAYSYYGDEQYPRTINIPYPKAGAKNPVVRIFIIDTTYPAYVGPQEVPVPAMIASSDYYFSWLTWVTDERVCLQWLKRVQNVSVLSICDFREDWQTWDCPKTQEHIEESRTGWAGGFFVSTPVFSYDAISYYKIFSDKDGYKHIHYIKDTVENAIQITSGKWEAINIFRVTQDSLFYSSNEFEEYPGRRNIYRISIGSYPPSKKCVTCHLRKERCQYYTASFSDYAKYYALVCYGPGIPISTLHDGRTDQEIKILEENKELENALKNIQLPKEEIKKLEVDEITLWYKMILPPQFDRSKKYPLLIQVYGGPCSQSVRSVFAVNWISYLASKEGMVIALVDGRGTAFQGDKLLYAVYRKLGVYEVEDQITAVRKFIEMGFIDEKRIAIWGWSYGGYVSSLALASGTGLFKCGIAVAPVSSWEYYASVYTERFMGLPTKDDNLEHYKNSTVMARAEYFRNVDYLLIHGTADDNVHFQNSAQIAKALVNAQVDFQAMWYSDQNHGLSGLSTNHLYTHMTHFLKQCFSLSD
Procedure: The Biacore 8K (Cytiva) instrument was used to detect ligand binding of the FAP protein (Sinobiological). The FAP protein was captured on the SA chip. Before ligand immobilization (flow paths 1 and 2, flow rate of 10 μL/min), the FAP protein (10 μg/mL, flow rate of 5 μL/min, injection time of 600 s) was immobilized on flow path 2 using running buffer, and the sensor surface was conditioned with three consecutive injections of 1 M NaCl in 50 mM NaOH. After each ligand injection, additional washing was carried out with isopropanol in 1 M NaCl and 50 mM NaOH (flow paths 1 and 2, flow rate of 10 μL/min, injection time of 60 s).
The test compounds were dissolved in 100% dimethyl sulfoxide and diluted to 10 mM, then further diluted in the assay buffer (PBS, pH 7.4, 1 mM TCEP ([…]), 0.05% P20, 2% dimethyl sulfoxide) to appropriate maximum concentrations. The analyte was run under the following conditions: analysis temperature=15° C., analysis step=all set to LMW kinetics; cycle type=single cycle (90 s contact time, 1800 s dissociation time, 30 μL/min flow rate, flow channels 1, 2); flow channel detection=2-1). Data evaluation was performed using Biacore Insight Evaluation Software, and the data were fitted to a 1:1 binding model.
The Biacore results are shown in Table 1: pKD=−Log KD, where KD is the binding affinity of the compound to the FAP protein as measured by Biacore. The binding affinity is expressed by KD (M)=Kd(1/s)/Ka(1/Ms). Where A: pKD>8, B: 7<pKD<8, C: 6<pKD<7, D: pKD<6.

HT1080 2 #FAP cells = experiment: Tissue distribution in FAP-positive tumor-bearing mice; type: in vivo, mice (Balb/c Nude); settings: 24 hours after tail vein injection, approximately 3.7 MBq/mouse
Text: Tissue distribution in FAP-positive tumor-bearing mice: 2×10^6 HT1080 2 #FAP cells (in 50% Matrigel, Corning) were subcutaneously inoculated into the right shoulder of mice (Balb/c Nude, Vital River) aged approximately 6-9 weeks. When the tumors grew to approximately 150-350 mm^3 in size, the following “7. General ^177Lu Labeling Experimental Method” was used to label JHH3, JHH8, JHH9, JHDB7, and JHDB8 compounds. Subsequently, ^177Lu-JHH3, ^177Lu-JHH8, ^177Lu-JHH9, ^177Lu-JHDB7, ^177Lu-JHDB8, and ^177Lu-OncoFAP DOTAGA radiolabeled compounds were injected into the mice via the tail vein (approximately 3.7 MBq/mouse). 24 hours after administration, the animals were euthanized by CO2 inhalation, and blood and organs (liver, kidney, muscle, tumor) were collected after euthanasia.
After organ collection, the samples were rinsed twice with deionized water and dried, then placed in pre-weighed tubes and weighed again to calculate the sample weight. The samples were measured on the day of collection. All blood samples and tissue samples were measured for radioactive counts using a gamma counter.

[1] = EC50 (ng/mL) converted with molecular weight, read-out: EC50
[2] = competition with ^177Lu-FAPi-46, on ice 2 hours

| EC50 (HT1080 8 #cells; [1]) [nM] | EC50 (HT1080 8 #cells; [2]) [ng/mL] | uptake in other organs compared to the reference compound (HT1080 2 #FAP cells) | uptake in tumor tissues compared to the reference compound (HT1080 2 #FAP cells) | SMILES | Kd (FAP protein) [nM] |
| --- | --- | --- | --- | --- | --- |
| 34.2 | 11.89 |  |  | N#C[C@@H]1CC(F)(F)CN1C(=O)CNC(=O)c1cccc2c1CNCC2 [Compound H4b] |  |
| 9.24 | 3.219 |  |  | N#C[C@@H]1CC(F)(F)CN1C(=O)CNC(=O)c1ccc2c(c1)CCCN2 [Compound H8b] |  |
| 1.3 | 1.231 |  |  | N#C[C@@H]1CC(F)(F)CN1C(=O)CNC(=O)c1cccc2c1CN(C(=O)CCC(=O)NCCNC(=O)CCC(C(=O)O)N1CCN(CC(=O)O)CCN(CC(=O)O)CCN(CC(=O)O)CC1)CC2 (stereo partly drawn) [JHH4] |  |
| 452 | 157.5 |  |  | N#C[C@@H]1CC(F)(F)CN1C(=O)CNC(=O)c1cccc2c1CCNC2 [Compound H5b] |  |
|  |  | lower uptake in other organs | higher uptake in tumor tissues | N#C[C@@H]1CC(F)(F)CN1C(=O)CNC(=O)c1cc2c(s1)CCN(C(=O)CCC(=O)NCCNC(=O)CCC(C(=O)O)N1CCN(CC(=O)O)CCN(CC(=O)O)CCN(CC(=O)O)CC1)C2 (stereo partly drawn) [^177Lu-JHH3, metal not drawn] |  |
| 14.5 | 13.77 |  |  | N#C[C@@H]1CC(F)(F)CC1C(=O)CNC(=O)c1ccc2c(c1)CCCN2C(=O)CCC(=O)NCCNC(=O)CCC(C(=O)O)N1CCN(CC(=O)O)CCN(CC(=O)O)CCN(CC(=O)O)CC1 (stereo partly drawn) [JHH8] | < 10 |

| SMILES | EC50 (HT1080 8 #cells; [1]) [nM] | EC50 (HT1080 8 #cells; [2]) [ng/mL] | uptake in other organs compared to the reference compound (HT1080 2 #FAP cells) | uptake in tumor tissues compared to the reference compound (HT1080 2 #FAP cells) | Kd (FAP protein) [nM] |
| --- | --- | --- | --- | --- | --- |
| N#C[C@@H]1CC(F)(F)CN1C(=O)CNC(=O)c1ccnc2c(NC(=O)CCC(=O)NCCNC(=O)CCC(C(=O)O)N3CCN(CC(=O)O)CCN(CC(=O)O)CCN(CC(=O)O)CC3)cccc12 (stereo partly drawn) [OncoFAP-DOTAGA, reference compound] | 2.81 | 2.699 |  |  |  |
| N#C[C@@H]1CC(F)(F)CN1C(=O)CNC(=O)c1cccc2c1CCCN2C(=O)CCC(=O)NCCNC(=O)CCC(C(=O)O)N1CCN(CC(=O)O)CCN(CC(=O)O)CCN(CC(=O)O)CC1 (stereo partly drawn) [JHH10] | 3.56 | 3.38 |  |  | < 10 |
